# Assay results published in patent US8273766B2, “Tetrahydroisoquinoline compound” (Kowa Company, Ltd., priority 2007, dated 2012).
# pIC50: −log10 of the molar value.
# Biological target: T1, CCR3 (Cavia porcellus, UniProt Q9Z2I3)
# T1 construct: from tissue; host or cells: peritoneal eosinophils of polymyxin B-treated male Hartley guinea pigs (Japan SLC, Inc.)
# T1 sequence (Q9Z2I3 1-358): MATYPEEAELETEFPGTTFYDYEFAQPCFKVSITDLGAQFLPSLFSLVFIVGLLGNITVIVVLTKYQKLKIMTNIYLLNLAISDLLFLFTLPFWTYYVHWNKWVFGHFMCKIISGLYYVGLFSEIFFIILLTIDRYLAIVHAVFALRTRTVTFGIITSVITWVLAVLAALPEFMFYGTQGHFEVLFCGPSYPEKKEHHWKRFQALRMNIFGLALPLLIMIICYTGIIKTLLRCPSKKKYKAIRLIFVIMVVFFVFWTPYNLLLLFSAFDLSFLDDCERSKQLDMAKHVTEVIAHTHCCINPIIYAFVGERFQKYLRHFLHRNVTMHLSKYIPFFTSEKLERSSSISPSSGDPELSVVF
# Experiment: CCR3 antagonistic action: eotaxin-induced migration of guinea pig eosinophils (chemotaxis chamber)
# Format: cell-based
# Conditions: inhibition of migration of guinea pig eosinophils toward guinea pig eotaxin 100 ng/mL; 30 min pretreatment at 37° C., 1 hour reaction
# Method: Test Example 1 Test of a CCR3 Antagonistic Action
# Guinea pig eosinophils were prepared with reference to a literature (Pinkus, Blood. 52 (1978) 127-134). That is, to a six-week old male Hartley guinea pig (Japan SLC, Inc.) was intraperitoneally injected polymyxin B (SIGMA) diluted with PBS (−) at 2 mg per animal once a week. After repeating the same operation four times for 24 hours, the abdominal cavity of each individual under anesthesia with diethyl ether was injected with 50 mL of PBS (−) containing 6 U/mL of heparin and 1 mM EDTA, and the liquid was collected. It was washed with PBS (−) containing 1 mM EDTA, and the cells were suspended in a Percoll solution having a specific density of 1.070 were centrifuged using a discontinuous Percoll gradient liquid to obtain an eosinophilic crude fraction. After washing with PBS (−), they were suspended in RPMI-1640 culture medium (SIGMA) containing 1% FCS, and cultured in a CO2 incubator overnight. Next day, the cells were harvested, a compound to be tested was added to the eosinophils suspended in the RPMI-1640 culture medium containing 0.1% BSA (bovine serum albumin, SIGMA), and then pretreatment was performed by leaving it to stand still at 37° C. for 30 minutes. A mixed liquid of guinea pig eotaxin (Chemical Synthesis Services) and the compound to be tested that had been prepared to be at a final concentration of 100 ng/mL was added into a lower chamber of 96-well chemotaxis chambers (Neuroprobe), and then a mixed liquid of 12.0×10^5 eosinophils per well and the compound to be tested was sequentially set in an upper chamber of a polycarbonate filter (Neuroprobe) having a pore size of 5 μm after completion of the treatment with polyvinyl pyrrolidone (PVP), and allowed to undergo a reaction in a CO2 incubator for 1 hour. After completion of the reaction, the filter was taken out, the cells were stained in a Diff-Quik stain kit (International Reagents Co., Ltd.), and the migrated eosinophils were microscopically counted. Five fields of view per well were counted, and an average value of the counts was taken as a count of migrated eosinophils.
row,pIC50,Compound
1,7.52,"CC(C)(C)c1ccc(CNCCN2Cc3ccccc3CC2Cc2ccc(F)cc2)cc1 (stereo not drawn) [Example 96, N-(4-tert-butylbenzyl)-2-[3-(4-fluorobenzyl)-3,4-dihydroisoquinolin-2(1H)-yl]ethanamine]"
2,8.40,"CC(C)Nc1ccc(CNCCN2Cc3ccc(F)cc3CC2Cc2ccc(F)cc2)cc1 (stereo not drawn) [Example 138, 4-[[2-[6-fluoro-3-(4-fluorobenzyl)-3,4-dihydroisoquinolin-2(1H)-yl]ethylamino]methyl]-N-isopropylaniline]"
3,7.70,"CC(C)(O)c1ccc(CNCCN2Cc3ccc(F)cc3CC2Cc2ccc(F)cc2)cc1 (stereo not drawn) [Example 154, N-[4-(1-hydroxy-1-methylethyl)benzyl]-2-[6-fluoro-3-(4-fluorobenzyl)-3,4-dihydroisoquinolin-2(1H)-yl]ethanamine]"
4,7.60,"CS(=O)(=O)Nc1cccc(CNCCN2Cc3ccc(F)cc3CC2Cc2ccc(Cl)cc2)c1 (stereo not drawn) [Example 157, N-(3-methanesulfonylaminobenzyl)-2-[3-(4-chlorobenzyl)-6-fluoro-3,4-dihydroisoquinolin-2(1H)-yl]ethanamine]"

# More lines, now with the values behind:
row,Compound,pIC50
1,"CC(=O)c1cccc(CNCCN2Cc3ccccc3CC2Cc2ccc(F)cc2)c1 (stereo not drawn) [Example 106, N-(3-acetylbenzyl)-2-[3-(4-fluorobenzyl)-3,4-dihydroisoquinolin-2(1H)-yl]ethanamine]",8.15
2,"CS(=O)(=O)Nc1cccc(CNCCN2Cc3ccc(F)cc3CC2Cc2ccc(F)cc2)c1 (stereo not drawn) [Example 126, N-[3-(methanesulfonylamino)benzyl]-2-[6-fluoro-3-(4-fluorobenzyl)-3,4-dihydroisoquinolin-2(1H)-yl]ethanamine]",9.00
3,"CCNc1ccc(CNCCN2Cc3ccc(F)cc3CC2Cc2ccc(F)cc2)cc1 (stereo not drawn) [Example 139, 4-[[2-[6-fluoro-3-(4-fluorobenzyl)-3,4-dihydroisoquinolin-2(1H)-yl]ethylamino]methyl]-N-ethylaniline]",7.40
4,"COCCNc1ccc(CNCCN2Cc3ccc(F)cc3CC2Cc2ccc(F)cc2)cc1 (stereo not drawn) [Example 150, 4-[[2-[6-fluoro-3-(4-fluorobenzyl)-3,4-dihydroisoquinolin-2(1H)-yl]ethylamino]methyl]-N-(2-methoxyethyl)aniline]",8.40
5,"CC(C)(C)c1ccc(CNCCN2Cc3ccc(F)cc3CC2Cc2ccc(Cl)cc2)cc1 (stereo not drawn) [Example 156, N-(4-tert-butylbenzyl)-2-[3-(4-chlorobenzyl)-6-fluoro-3,4-dihydroisoquinolin-2(1H)-yl]ethanamine]",7.10
6,"CC(C)Nc1ccc(CNCCN2Cc3cc(F)ccc3CC2Cc2ccc(F)cc2)cc1 (stereo not drawn) [Example 161, 4-[[2-[7-fluoro-3-(4-fluorobenzyl)-3,4-dihydroisoquinolin-2(1H)-yl]ethylamino]methyl]-N-isopropylaniline]",7.60
7,"Fc1ccc(CC2Cc3ccccc3CN2CCNCc2ccncc2)cc1 (stereo not drawn) [Example 171, N-(pyridin-4-yl)methyl-2-[3-(4-fluorobenzyl)-3,4-dihydroisoquinolin-2(1H)-yl]ethanamine]",7.85
8,"Fc1ccc(CC2Cc3cc(F)ccc3CN2CCNCc2ccncc2)cc1 (stereo not drawn) [Example 180, N-(pyridin-4-yl)methyl-2-[6-fluoro-3-(4-fluorobenzyl)-3,4-dihydroisoquinolin-2(1H)-yl]ethanamine]",8.70
